From US20240381872A1, “SUBSTITUTED 2,3-DIHYDRO[1,3]THIAZOLO[4,5-B]PYRIDINES, SALTS THEREOF AND THEIR USE AS HERBICIDALLY ACTIVE SUBSTANCES” (BAYER AKTIENGESELLSCHAFT, priority 2021, published 2024)

Key:
Type in all cases: in vivo
Kochia scoparia (KCHSC) = assay: Herbicidal pre-emergence action, section A (Table A4); conditions: visual grading after ca. 3 weeks vs untreated controls; for pest or weed control at 1280 g/ha: Bassia scoparia, pre-emergence, 504 h, read-out: pre-emergence activity against KCHSC in %
In short: (§1)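 In this greenhouse test, sown seeds under soil cover received the compounds as suspensions or emulsions, with 0.5% additive, at 600 l water/ha before emergence. Damage was assessed by eye after about 3 weeks, compared with untreated controls.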

[1] = system: Triticum aestivum (TRZAS); assay: Post-emergence effects on crop plants, section F (Table F2); conditions: for percent crop plant damage (wheat, post-emergence) at 80 g/ha: Triticum aestivum, 504 h, read-out: post-emergence activity against TRZAS in %; for post-emergence activity against TRZAS in %: crop plant damage
In short: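 Sandy loam, greenhouse, controlled conditions. Spray at single-leaf stage (2–3 wk post-sowing); WP/EC aqueous suspension/emulsion + 0.5% additive, 600 l water/ha; rate ≤320 g/ha. Visual scoring ca. 3 wk post-spray vs untreated, % effect.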

[2] = system: Polygonum convolvulus (POLCO); assay: Herbicidal pre-emergence action, section C (Table C7); conditions: visual grading after ca. 3 weeks; for pest or weed control at 320 g/ha: Fallopia convolvulus, pre-emergence, 504 h, read-out: pre-emergence activity against POLCO in %
In short: (§2)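 Pre-emergence, sandy loam. WP/EC formulations applied to covering soil surface, aqueous, + 0.5% additive, 600 l water/ha. Greenhouse, optimum growth. Visual % damage vs untreated, ca. 3 wk.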

[3] = system: Alopecurus myosuroides (ALOMY); assay: Herbicidal pre-emergence action, section A (Table A2); conditions: visual grading after ca. 3 weeks vs untreated controls
In short: as §1

[4] = system: Digitaria sanguinalis (DIGSA); assay: Herbicidal pre-emergence action, section C (Table C12); conditions: visual grading after ca. 3 weeks; for pest or weed control at 80 g/ha: Digitaria sanguinalis, pre-emergence, 504 h, read-out: pre-emergence activity against DIGSA in %
In short: as §2

Setaria viridis (SETVI) = assay: Herbicidal pre-emergence action, section C (Table C8); conditions: visual grading after ca. 3 weeks; for pest or weed control at 80 g/ha: Setaria viridis, pre-emergence, 504 h, read-out: pre-emergence activity against SETVI in %
In short: as §2

Veronica persica (VERPE) = assay: Herbicidal pre-emergence action, section A (Table A10); conditions: for pest or weed control at 1280 g/ha: Veronica persica, 504 h, read-out: pre-emergence activity against VERPE in %
In short: as §1

[5] = system: Echinochloa crus-galli (ECHCG); assay: Herbicidal post-emergence action, section E (Table E5); conditions: visual assessment ca. 3 weeks after spraying
Source text: Seeds of mono- and dicotyledonous weed plants and crop plants were sown, in plastic or organic planting pots, in sandy loam, covered with soil and grown in a greenhouse under controlled growth conditions. 2 to 3 weeks after sowing, the test plants were sprayed in the single-leaf stage. The compounds according to the invention, formulated in form of wettable powders (WP) or as emulsifiable concentrates (EC), were sprayed onto the green plant parts as aqueous suspension or emulsion, with the addition of 0.5% of an additive, at an application rate of 600 l of water/ha (converted). The test plants were placed in the greenhouse for ca. 3 weeks under optimum growth conditions, and then the effect of the preparations was assessed visually in comparison with untreated controls (herbicidal effect in percent (%): 100% effect=plants have died off, 0% effect=as control plants).

[6] = system: Amaranthus retroflexus (AMARE); assay: Herbicidal pre-emergence action, section C (Table C11); conditions: visual grading after ca. 3 weeks; for pest or weed control at 320 g/ha / pre-emergence activity against AMARE in %: application rate 320 g/ha
In short: as §2

[7] = system: Echinochloa crus-galli (ECHCG); assay: Herbicidal post-emergence action, section B (Table B3); conditions: rated visually after about 3 weeks; for pest or weed control at 1280 g/ha: Echinochloa crus-galli, 504 h, read-out: post-emergence activity against ECHCG in %
In short: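 Scores are visual % activity relative to untreated plants (0% = like control, 100% = dead), taken about 3 weeks after spraying. Compounds, as WP or EC in water with 0.5% additive at 600 L/ha, went onto one-leaf-stage weeds grown from seed in sandy loam under greenhouse conditions.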

[8] = system: Alopecurus myosuroides (ALOMY); assay: Herbicidal pre-emergence action, section C (Table C2); conditions: visual grading after ca. 3 weeks vs untreated controls; for pest or weed control at 320 g/ha: Alopecurus myosuroides, pre-emergence, 504 h, read-out: pre-emergence activity against ALOMY in %
In short: as §2

[9] = Echinochloa crus-galli, 504 h, application rate 320 g/ha, read-out: post-emergence activity against ECHCG in %
[10] = Amaranthus retroflexus, pre-emergence, 504 h, read-out: pre-emergence activity against AMARE in %

Row | Compound | percent crop plant damage (wheat, post-emergence) at 80 g/ha ([1]; application rate 80 g/ha) | pest or weed control at 320 g/ha ([2]; application rate 320 g/ha) | pest or weed control at 80 g/ha ([4]; application rate 80 g/ha) | pest or weed control at 80 g/ha (Setaria viridis (SETVI); application rate 80 g/ha) | pest or weed control at 320 g/ha [5, 9] | pre-emergence activity against ALOMY in % ([3]; application rate 1280 g/ha) | pre-emergence activity against DIGSA in % ([4]; application rate 320 g/ha) | pre-emergence activity against SETVI in % (Setaria viridis (SETVI); application rate 320 g/ha) | pre-emergence activity against VERPE in % (Veronica persica (VERPE); application rate 1280 g/ha) | post-emergence activity against ECHCG in % ([5]; application rate 320 g/ha) | pest or weed control at 320 g/ha ([8]; application rate 320 g/ha) | pre-emergence activity against KCHSC in % (Kochia scoparia (KCHSC); application rate 320 g/ha) | pre-emergence activity against ALOMY in % ([8]; application rate 80 g/ha) | pre-emergence activity against AMARE in % [6] | pre-emergence activity against POLCO in % ([2]; application rate 80 g/ha) | post-emergence activity against ECHCG in % ([7]; application rate 1280 g/ha) | other results
1 | CCOCCS(=O)(=O)N1C[S+]([O-])c2cc(C)c(-c3ccccc3F)nc21 (centres unmarked) [Example I-127] | 0% | 90% | 100% | 100% | 90% |  |  |  |  |  |  |  |  |  |  |  | pest or weed control at 1280 g/ha (Kochia scoparia (KCHSC); application rate 1280 g/ha): 100%; pest or weed control at 320 g/ha ([3]; Alopecurus myosuroides, pre-emergence, 504 h, application rate 320 g/ha, read-out: pre-emergence activity against ALOMY in %): 100%; pest or weed control at 1280 g/ha (Veronica persica (VERPE); application rate 1280 g/ha): 90%; pest or weed control at 320 g/ha [6, 10]: 90%; pest or weed control at 1280 g/ha ([7]; application rate 1280 g/ha): 90%
2 | COC(=O)CCC(=O)N1CSc2cc(Cl)c(-c3ccccc3F)nc21 [Example I-003] |  |  |  |  |  | 100% | 90% | 100% | 90% | 80% |  |  |  |  |  |  | pre-emergence activity against KCHSC in % (Kochia scoparia (KCHSC); application rate 1280 g/ha): 100%; pre-emergence activity against ALOMY in % ([8]; application rate 320 g/ha): 80%; post-emergence activity against TRZAS in % ([1]; application rate 320 g/ha): 0%
3 | Cc1cc2c(nc1-c1ccccc1F)NCS2 [Example I-007, 5-(2-fluorophenyl)-6-methyl-2,3-dihydro[1,3]thiazolo[4,5-b]pyridine] |  | 80% | 100% | 100% |  |  |  |  |  |  | 100% |  |  |  |  |  | pest or weed control at 1280 g/ha (Kochia scoparia (KCHSC); application rate 1280 g/ha): 90%; pest or weed control at 1280 g/ha ([3]; Alopecurus myosuroides, pre-emergence, 504 h, application rate 1280 g/ha, read-out: pre-emergence activity against ALOMY in %): 100%; pest or weed control at 1280 g/ha (Veronica persica (VERPE); application rate 1280 g/ha): 90%; pest or weed control at 80 g/ha ([5]; Echinochloa crus-galli, 504 h, application rate 80 g/ha, read-out: post-emergence activity against ECHCG in %): 90%; pest or weed control at 1280 g/ha ([7]; application rate 1280 g/ha): 90%
4 | COCC1(C(=O)N2CSc3cc(C)c(-c4ccccc4F)nc32)CC(Cl)=NO1 (centres unmarked) [Example I-128] |  |  |  |  |  |  |  |  |  | 90% |  | 90% | 90% | 90% |  |  | pre-emergence activity against POLCO in % ([2]; application rate 320 g/ha): 90%; pre-emergence activity against ALOMY in % ([3]; application rate 320 g/ha): 100%; pre-emergence activity against DIGSA in % ([4]; application rate 80 g/ha): 100%; pre-emergence activity against SETVI in % (Setaria viridis (SETVI); application rate 80 g/ha): 100%; pre-emergence activity against VERPE in % (Veronica persica (VERPE); application rate 320 g/ha): 90%; post-emergence activity against ECHCG in % ([7]; application rate 320 g/ha): 90%
5 | Fc1ccccc1-c1nc2c(cc1Br)SCN2 [Example I-001, 6-bromo-5-(2-fluorophenyl)-2,3-dihydro[1,3]thiazolo[4,5-b]pyridine] | 0% | 80% |  | 100% | 90% |  |  |  |  |  | 100% |  |  |  |  |  | pest or weed control at 320 g/ha [6, 10]: 90%
6 | Cc1cc2c(nc1-c1ccccc1F)N(S(=O)(=O)Cc1ccc(F)cc1)CS2 [Example I-122] |  |  |  |  |  | 100% | 100% | 100% | 90% | 90% |  | 90% |  |  | 80% | 100% | pre-emergence activity against ALOMY in % ([8]; application rate 320 g/ha): 100%; post-emergence activity against TRZAS in % ([1]; application rate 80 g/ha): 20%
7 | Cc1cc2c(nc1-c1ccccc1Cl)NCS2 [Example I-049, 5-(2-chlorophenyl)-6-methyl-2,3-dihydro[1,3]thiazolo[4,5-b]pyridine] | 10% | 80% | 90% | 100% | 80% |  |  |  |  |  | 100% |  |  |  |  |  | pest or weed control at 80 g/ha ([6]; Amaranthus retroflexus, pre-emergence, 504 h, application rate 80 g/ha, read-out: pre-emergence activity against AMARE in %): 80%
8 | COC(=O)CCC(=O)N1CSc2cc(C)c(-c3ccccc3F)nc21 [Example I-010] |  |  |  |  |  | 100% |  |  | 90% | 90% |  |  | 90% | 90% | 80% | 90% | pre-emergence activity against KCHSC in % (Kochia scoparia (KCHSC); application rate 1280 g/ha): 100%; pre-emergence activity against DIGSA in % ([4]; application rate 80 g/ha): 100%
9 | Cc1cc2c(nc1-c1cccc(C)c1F)NCS2 [Example I-113] |  |  |  |  |  |  | 100% | 100% | 90% | 80% |  | 90% |  |  | 90% |  | post-emergence activity against TRZAS in % ([1]; application rate 320 g/ha): 20%
10 | Cc1cc2c(nc1-c1ccccc1F)N(C(=O)C1(C)CC(Cl)=NO1)CS2 (centres unmarked) [Example I-083] |  |  |  |  |  |  | 100% |  | 90% |  |  | 90% | 90% | 90% |  | 90% | pre-emergence activity against POLCO in % ([2]; application rate 320 g/ha): 90%; pre-emergence activity against ALOMY in % ([3]; application rate 320 g/ha): 100%; pre-emergence activity against SETVI in % (Setaria viridis (SETVI); application rate 80 g/ha): 100%; post-emergence activity against ECHCG in % ([5]; application rate 80 g/ha): 80%
